According to ChEMBL document CHEMBL4837201, “Increased antibacterial properties of indoline-derived phenolic Mannich bases” (Eur J Med Chem, 2021):
In brackets after ≈: the same amount, converted by molar mass.

Key:
Staphylococcus aureus [1] = assay: Antibacterial activity against Staphylococcus aureus assessed as inhibition of bacterial growth incubated for 16 to 24 hrs by broth microdilution method; type: functional; settings: time 16-24 hrs
Staphylococcus aureus [2] = assay: Antibacterial activity against methicillin-sensitive Staphylococcus aureus ATCC 25923 assessed as inhibition of bacterial growth incubated for 16 to 24 hrs by broth microdilution method; type: functional; settings: time 16-24 hrs
Staphylococcus aureus [3] = assay: Antibacterial activity against Staphylococcus aureus ATCC 6538 assessed as inhibition of bacterial growth incubated for 16 to 24 hrs by broth microdilution method; type: functional; settings: time 16-24 hrs
Staphylococcus aureus [4] = assay: Antibacterial activity against methicillin-resistant Staphylococcus aureus CIP106760 assessed as inhibition of bacterial growth incubated for 16 to 24 hrs by broth microdilution method; type: functional; settings: time 16-24 hrs
Enterococcus faecalis [5] = assay: Antibacterial activity against Enterococcus faecalis ATCC 29212 assessed as inhibition of bacterial growth incubated for 16 to 24 hrs by broth microdilution method; type: functional; settings: time 16-24 hrs
Enterococcus faecalis [6] = assay: Antibacterial activity against vancomycin-resistant Enterococcus faecalis ATCC 51299 assessed as inhibition of bacterial growth incubated for 16 to 24 hrs by broth microdilution method; type: functional; settings: time 16-24 hrs
[7] = test system: Staphylococcus epidermidis; assay: Antibacterial activity against Staphylococcus epidermidis ATCC 12228 assessed as inhibition of bacterial growth incubated for 16 to 24 hrs by broth microdilution method; type: functional; settings: time 16-24 hrs
Bacillus subtilis = assay: Antibacterial activity against Bacillus subtilis ATCC 6633 assessed as inhibition of bacterial growth incubated for 16 to 24 hrs by broth microdilution method; type: functional; settings: time 16-24 hrs
[8] = Toxicity in Artemia salina assessed as mortality at 10 ug/ml measured after 24 hrs; settings: at 10 µg/mL
[9] = Toxicity in Saccharomyces cerevisiae ATCC 2601 assessed as reduction in cell viability measured after 24 hrs by microdilution method; settings: Saccharomyces cerevisiae, Saccharomyces cerevisiae ATCC 2601 cells
HaCaT [10] = assay: (§1) Cytotoxicity against human HaCaT cells assessed as cell viability at 50 uM after 24 hrs by MTT assay; type: cell-based; settings: hacat, 24 h, 50 µM
MRC5 = assay: Cytotoxicity against human MRC5 cells assessed as reduction in cell viability measured after 24 hrs by MTT assay; type: cell-based; settings: MRC5, 24 h
HaCaT [11] = assay: Cytotoxicity against human HaCaT cells assessed as reduction in cell viability at 50 uM after 24 hrs by MTT assay; type: cell-based
[12] = test system: Staphylococcus epidermidis; assay: Antibacterial activity against Staphylococcus epidermidis assessed as inhibition of bacterial growth incubated for 16 to 24 hrs by broth microdilution method; type: functional; settings: time 16-24 hrs
Listeria monocytogenes = assay: Antibacterial activity against Listeria monocytogenes assessed as inhibition of bacterial growth incubated for 16 to 24 hrs by broth microdilution method; type: functional; settings: time 16-24 hrs
Enterococcus faecium = assay: Antibacterial activity against Enterococcus faecium assessed as inhibition of bacterial growth incubated for 16 to 24 hrs by broth microdilution method; type: functional; settings: time 16-24 hrs
Enterococcus faecalis [13] = assay: Antibacterial activity against Enterococcus faecalis assessed as inhibition of bacterial growth incubated for 16 to 24 hrs by broth microdilution method; type: functional; settings: time 16-24 hrs
[14] = Antioxidant activity assessed as DPPH radical scavenging activity at 10 ug/ml by DPPH assay relative to control; type: functional; settings: dose 10.0 µg/ml
[15] = Cytotoxicity against human HaCaT cells assessed as cell viability at 28 uM after 24 hrs by MTT assay; type: cell-based; settings: read-out: Activity
[16] = as §1; type: cell-based; settings: HaCaT cells, read-out: Activity

| SMILES | MBC (Staphylococcus aureus [2]) [µM] | MIC (Staphylococcus aureus [2]) [µM] | MBC (Staphylococcus aureus [3]) [µM] | MIC (Staphylococcus aureus [3]) [µM] | MBC (Staphylococcus aureus [4]) [µM] | MIC (Staphylococcus aureus [4]) [µM] | MBC (Enterococcus faecalis [5]) [µM] | MIC (Enterococcus faecalis [5]) [µM] | MBC (Enterococcus faecalis [6]) [µM] | MIC (Enterococcus faecalis [6]) [µM] | MBC [7] [µM] | MIC [7] [µM] | MBC (Bacillus subtilis) [µM] | MIC (Bacillus subtilis) [µM] | IC50 at 24 h [9] [µM] | Activity (HaCaT [11]) | other results |
| --- | --- | --- | --- | --- | --- | --- | --- | --- | --- | --- | --- | --- | --- | --- | --- | --- | --- |
| O=[N+]([O-])c1ccc(O)c(C(c2ccc(C(F)(F)F)cc2)N2CCc3ccccc32)c1 (centres undefined) | 37.7 (≈ 15.6 µg/mL) | 1.18 (≈ 0.489 µg/mL) | 2.36 (≈ 0.978 µg/mL) | 1.18 (≈ 0.489 µg/mL) | 1.18 (≈ 0.489 µg/mL) | 1.18 (≈ 0.489 µg/mL) | 9.43 (≈ 3.91 µg/mL) | 1.18 (≈ 0.489 µg/mL) | 151 (≈ 62.6 µg/mL) | 1.18 (≈ 0.489 µg/mL) | < 1.18 | < 1.18 | < 1.18 | < 1.18 | > 100 | Non-Toxic | MIC (Staphylococcus aureus [1]): 1.18 µM (≈ 0.489 µg/mL); mortality at 24 h, 10 ug/ml [8]: 8%; Activity (HaCaT [10]): Non-Toxic; IC50 (MRC5): 1.7 µM; MIC [12]: 1.18 µM (≈ 0.489 µg/mL); MIC (Listeria monocytogenes): 1.18 µM (≈ 0.489 µg/mL); MIC (Enterococcus faecium): 2.36 µM (≈ 0.978 µg/mL); MIC (Enterococcus faecalis [13]): 2.36 µM (≈ 0.978 µg/mL) |
| Cc1ccc(C(c2cc([N+](=O)[O-])ccc2O)N2CCc3cc(Br)ccc32)cc1 (centres undefined) | 81.1 (≈ 35.6 µg/mL) | 10.1 (≈ 4.44 µg/mL) | < 142 | 17.8 (≈ 7.82 µg/mL) | 20.3 (≈ 8.92 µg/mL) | 5.07 (≈ 2.23 µg/mL) | 81.1 (≈ 35.6 µg/mL) | 5.07 (≈ 2.23 µg/mL) | 162 (≈ 71.2 µg/mL) | 10.1 (≈ 4.44 µg/mL) | 4.71 (≈ 2.07 µg/mL) | 9.43 (≈ 4.14 µg/mL) | 9.43 (≈ 4.14 µg/mL) | 4.71 (≈ 2.07 µg/mL) | – | – | Activity [14]: > 80% |
| CN[C@H](CC(C)C)C(=O)N[C@H]1C(=O)N[C@@H](CC(N)=O)C(=O)N[C@H]2C(=O)N[C@H]3C(=O)N[C@H](C(=O)N[C@H](C(=O)O)c4cc(O)cc(O)c4-c4cc3ccc4O)[C@H](O)c3ccc(c(Cl)c3)Oc3cc2cc(c3O[C@@H]2O[C@H](CO)[C@@H](O)[C@H](O)[C@H]2O[C@H]2C[C@](C)(N)[C@H](O)[C@H](C)O2)Oc2ccc(cc2Cl)[C@H]1O [VANCOMYCIN] | – | 5.4 (≈ 7.83 µg/mL) | – | 1.35 (≈ 1.96 µg/mL) | – | < 1.5 | – | 3.07 (≈ 4.45 µg/mL) | – | < 5.83 | – | 1.95 (≈ 2.83 µg/mL) | – | 1.95 (≈ 2.83 µg/mL) | – | – | – |
| Cc1ccc(C(c2cc([N+](=O)[O-])ccc2O)N2CCc3ccccc32)cc1 (centres undefined) | 347 (≈ 125 µg/mL) | 21.3 (≈ 7.68 µg/mL) | 43.4 (≈ 15.6 µg/mL) | 10.8 (≈ 3.89 µg/mL) | 5.42 (≈ 1.95 µg/mL) | 2.71 (≈ 0.977 µg/mL) | 86.7 (≈ 31.2 µg/mL) | 10.8 (≈ 3.89 µg/mL) | 173 (≈ 62.4 µg/mL) | 21.7 (≈ 7.82 µg/mL) | – | – | – | – | > 100 | – | Activity [14]: > 80%; viability at 24 h, 28 µM [15]: 20% |
| Cc1ccccc1C(c1cc([N+](=O)[O-])ccc1O)N1CCc2c(C#N)cccc21 (centres undefined) | 81.1 (≈ 31.3 µg/mL) | 10.1 (≈ 3.89 µg/mL) | 20.3 (≈ 7.82 µg/mL) | 5.07 (≈ 1.95 µg/mL) | 20.3 (≈ 7.82 µg/mL) | 5.07 (≈ 1.95 µg/mL) | 81.1 (≈ 31.3 µg/mL) | 5.07 (≈ 1.95 µg/mL) | 162 (≈ 62.4 µg/mL) | 10.1 (≈ 3.89 µg/mL) | 18.9 (≈ 7.28 µg/mL) | 2.36 (≈ 0.91 µg/mL) | 18.9 (≈ 7.28 µg/mL) | 4.71 (≈ 1.82 µg/mL) | – | – | – |
| Cc1ccccc1C(c1cc([N+](=O)[O-])ccc1O)N1CCc2cc(Cl)ccc21 (centres undefined) | 39.6 (≈ 15.6 µg/mL) | 2.47 (≈ 0.975 µg/mL) | 4.95 (≈ 1.95 µg/mL) | 1.24 (≈ 0.49 µg/mL) | 2.47 (≈ 0.975 µg/mL) | 1.24 (≈ 0.49 µg/mL) | 9.89 (≈ 3.91 µg/mL) | 1.24 (≈ 0.49 µg/mL) | 158 (≈ 62.4 µg/mL) | 2.47 (≈ 0.975 µg/mL) | 2.36 (≈ 0.932 µg/mL) | < 1.18 | 4.71 (≈ 1.86 µg/mL) | < 1.18 | > 100 | Toxic | viability at 24 h, 50 µM [16]: 3% |
| Cc1ccccc1C(c1cc([N+](=O)[O-])ccc1O)N1CCc2cc(Br)ccc21 (centres undefined) | 35.6 (≈ 15.6 µg/mL) | 2.22 (≈ 0.975 µg/mL) | 4.45 (≈ 1.95 µg/mL) | 1.11 (≈ 0.488 µg/mL) | 1.11 (≈ 0.488 µg/mL) | 1.11 (≈ 0.488 µg/mL) | 8.89 (≈ 3.91 µg/mL) | 1.11 (≈ 0.488 µg/mL) | 142 (≈ 62.4 µg/mL) | 4.45 (≈ 1.95 µg/mL) | < 1.18 | < 1.18 | < 1.18 | < 1.18 | > 100 | Toxic | Activity (HaCaT [10]): Toxic |
| O=[N+]([O-])c1ccc(O)c(C(c2ccc(Cl)cc2)N2CCc3ccccc32)c1 (centres undefined) | 9.86 (≈ 3.75 µg/mL) | 2.47 (≈ 0.941 µg/mL) | 2.47 (≈ 0.941 µg/mL) | 1.23 (≈ 0.468 µg/mL) | < 1.23 | 1.23 (≈ 0.468 µg/mL) | > 9.86 | 1.23 (≈ 0.468 µg/mL) | 19.7 (≈ 7.5 µg/mL) | 1.23 (≈ 0.468 µg/mL) | – | – | – | – | > 100 | – | mortality at 24 h, 10 ug/ml [8]: < 15% |
